According to patent US20130125265A1, “AGROBACTERIUM-MEDIATED METHOD FOR PRODUCING TRANSFORMED PLANT” (JAPAN TOBACCO INC., priority 2008, published 2013):

Test system: immature maize embryos (variety: A188)
Test: Effect of auxin in coculture medium on regeneration and GUS gene expression in whole plants regenerated without selection from Agrobacterium-inoculated immature maize embryos
Assay type: cell-based
Conditions: for Number of immature embryos found to regenerate into whole plants on LSZ medium / Number of immature embryos with at least one leaf piece showing GUS gene expression / Number of immature embryos whose leaf pieces were all GUS-negative: auxin 6.8 μM in coculture medium, 24 immature embryos per auxin; for Number of immature embryos found to regenerate into whole plants on LSZ medium: Agrobacterium LBA4404 (pSB124); for Percentage of regenerated plants showing expression of the transgene (in words) / Efficiency of regeneration into whole plants (in words): comparison of auxins in coculture medium
Experimental: Maize (variety: A188) immature embryos (1.0 to 1.5 mm in size) at 7 to 14 days after pollination were aseptically collected and washed once with LS-inf liquid medium, followed by pretreatment (thermal treatment at 46° C. for 3 minutes) to increase gene transfer efficiency for transformation enhancement. In LS-inf liquid medium containing 100 μM acetosyringone, Agrobacterium strain LBA4404 (pSB124) (Komari et al., 1996) was suspended to prepare an inoculum.
The thermally-treated immature embryos were mixed with the inoculum, vortexed for 30 seconds, and then allowed to stand for 5 minutes at room temperature. The Agrobacterium-inoculated immature embryos (24 in total) were placed, with their scutella facing up, onto a coculture medium containing dicamba (3,6-dichloro-o-anisic acid) or picloram (4-amino-3,5,6-trichloropicolinic acid) at a concentration of 6.8 μM in LS-AS medium (Ishida et al. 1996; solidified with 8 g/l agarose) which had been prepared to exclude 2,4-D (2,4-dichlorophenoxyacetic acid) and contain 5 μM AgNO3 and 5 μM CuSO4.
On the other hand, LS-AS medium containing 5 μM AgNO3 and 5 μM CuSO4 was supplemented with 1.5 mg/l (6.8 μM) 2,4-D as an auxin member and also used for testing, 24 immature embryos were placed onto this medium.
The immature embryos cultured in the dark at 25° C. for 7 days were placed onto LSZ medium (Ishida et ai., 1996) containing 10 μM CuSO4, and then cultured in the light at 25° C. for about 2 weeks. Leaves of the regenerated whole plants were partially excised and immersed in 0.1 M phosphate buffer (pH 6.8) containing 0.1% Triton X-100 and then allowed to stand at 37° C. for 1 hour. The phosphate buffer was removed and replaced by another phosphate buffer containing 1.0 mM 5-bromo-4-chloro-3-indolyl-β-D-glucuronic acid (X-gluc) and 20% methanol. After treatment at 37° C. for 24 hours, GUS gene expression was analyzed.

SMILES: O=C(O)COc1ccc(Cl)cc1Cl [2,4-D, 2,4-dichlorophenoxyacetic acid]
- Number of immature embryos found to regenerate into whole plants on LSZ medium (no selection): 21
- Number of immature embryos with at least one leaf piece showing GUS gene expression (no selection): 4
- Number of immature embryos that did not regenerate into plants on LSZ medium (auxin 1.5 mg/l (6.8 μM) in coculture medium, 24 immature embryos, no selection): 3
- Percentage of regenerated plants showing expression of the transgene (in words): slightly lower

SMILES: COc1c(Cl)ccc(Cl)c1C(=O)O [dicamba, 3,6-dichloro-o-anisic acid]
- Number of immature embryos found to regenerate into whole plants on LSZ medium (no selection): 24
- Number of immature embryos whose leaf pieces were all GUS-negative (no selection): 13
- Number of immature embryos with at least one leaf piece showing GUS gene expression (no selection): 11
- Efficiency of regeneration into whole plants (in words): higher efficiency
- Percentage of regenerated plants showing expression of the transgene (in words): increased percentage

SMILES: Nc1c(Cl)c(Cl)nc(C(=O)O)c1Cl [picloram, 4-amino-3,5,6-trichloropicolinic acid]
- Number of immature embryos found to regenerate into whole plants on LSZ medium (no selection): All of the immature embryos
- Number of immature embryos whose leaf pieces were all GUS-negative (no selection): 15
- Number of immature embryos with at least one leaf piece showing GUS gene expression (no selection): 9
- Efficiency of regeneration into whole plants (in words): higher efficiency
- Percentage of regenerated plants showing expression of the transgene (in words): increased percentage
